What all share (type): physicochemical
Data set [1] can be described thus: Solubility of the dye in n-hexane. The conditions noted are these: for Solubility (% by mass): in n-hexane at 25° C. and 0.1 MPa; for Solubility (in words): n-hexane. How it is done: 3. Solubility in n-Hexane
The solubility of each of the dyes in n-hexane (solvent) was determined as follows.
Each of the dyes to be measured was dissolved in n-hexane heated at 50° C., thereby preparing a saturated solution. The saturated solution obtained was then left in an environment of 25° C. and 0.1 MPa for 1 hour. The precipitated dye was filtered, and the precipitation amount was measured, from which the solubility (% by mass) of the dye in n-hexane at 25° C. and 0.1 MPa was calculated.

Data set [2] in a line: Absorption maximum wavelength and absorption coefficient of colored composition (visible-light spectrophotometer). Set-up: Absorption Coefficient (ε): unit not given here. Conditions: n-hexane solution; for Absorption Coefficient (ε): calculated by Lambert-Beer law. How it is done:
Each of the dyes shown above as Exemplary Compounds D-2, D-11, D-13, D-14, D-25, D-37, E-2, E-3, and E-7 was dissolved in a solvent (n-hexane) to make a 3% by mass solution, thereby preparing a colored composition (ink). Each of the colored compositions (inks) obtained was evaluated with respect to its color, absorption maximum wavelength (λmax), absorbance (abs), absorption coefficient (∈), viscosity, and relative dielectric constant, and solubility (% by mass) of each of the dyes in a solvent.
2. Absorption Maximum Wavelength, Absorbance, and Absorption Coefficient of Colored Composition
The absorption maximum wavelength (λmax) and the absorbance (abs) of the colored composition were measured using a visible-light spectrophotometer (trade name: UV-1800PC, manufactured by Shimadzu Corporation). The absorption coefficient (∈) was calculated based on the Lambert-Beer law.

Data set [3] in a line: Measurement of viscosity of dye solutions in n-hexane (R-type viscometer). The conditions noted are these: 20° C.; for Viscosity (5%): 5% by mass solution in n-hexane.
Data set [4] is described as follows: Measurement of relative dielectric constant of the dye (LCR meter, extrapolation). Conditions: extrapolated from 5, 7.5 and 10% by mass n-hexane solutions, 20° C., 40% RH, 1 kHz. How it is done:
4. Measurement of Relative Dielectric Constant
Solutions of the dye in n-hexane having concentrations of 5% by mass, 7.5% by mass and 10% by mass, respectively, were prepared, and individually injected into glass cells each having transparent indium-tin-oxide electrodes and a cell gap of 10 μm. The electrical capacities of the resultant cells were measured at 20° C. and 40% RH using a type 2353 LCR meter (manufactured by NF Corporation) at a measurement frequency of 1 kHz. The electrical capacity of n-hexane was also measured as a control sample. The relative dielectric constant of the dye was calculated based on the extrapolation method using the dielectric constants of the above prepared dye solutions calculated from the their electric capacities.

Turning to `CCCCCCCCCCCCn1cc(C=C2C(=O)ON=C2c2ccccc2)c2ccccc21` [D-25], the “Solubility (% by mass)” value in data set [1] was found to be 8.0 % by mass. Also, in data set [2], the “Absorption Maximum Wavelength λmax” value was 426 nm and the “Absorption Coefficient (ε)” value was 3.66 × 10^4. The “Viscosity (5%)” value in data set [3] is listed as 2.1 mPa · S.
In the case of `CCCCCCCCCCCCN(CCCCCCCCCCCC)c1ccc(C=CC=C2C(=O)ON=C2C(C)(C)C)c(C)c1` [E-2], the “Solubility (% by mass)” value in data set [1] came out at 6.5 % by mass. For the same molecule, in data set [2], the “Absorption Maximum Wavelength λmax” value came out at 515 nm and the “Absorption Coefficient (ε)” value is 5.10 × 10^4. Further, the “Relative Dielectric Constant” value in data set [4] is given as 9.5. The “Viscosity (5%)” value in data set [3] was determined as 2.1 mPa · S.
As for `CCCCCCCCCCCCN(CCCCCCCCCCCC)c1ccc(C=CC=CC=C2C(=O)ON=C2C)c(C)c1` [E-7], in data set [1], the “Solubility (% by mass)” value is 5.0 % by mass. Moreover, in data set [2], the “Absorption Maximum Wavelength λmax” value worked out at 556 nm and the “Absorption Coefficient (ε)” value was 5.20 × 10^4. For the same molecule, the “Viscosity (5%)” value in data set [3] is given as 2.3 mPa · S.
In the case of `COc1ccc(C2=NOC(=O)C2=Cc2ccc(N(CC(=O)O)CC(=O)O)cc2)cc1` [D-102, reference compound], in data set [1], the “Solubility (% by mass)” value worked out at 0.008 % by mass and the “Solubility (in words)” value is reported as “low solubility”.
On to `CCCCCCCCCCCCN(CCCCCCCCCCCC)c1ccc(C=C2C(=O)ON=C2c2ccccc2)cc1` [D-2], for which, in data set [1], the “Solubility (% by mass)” value is reported as 10.5 % by mass. Further, in data set [2], the “Absorption Maximum Wavelength λmax” value is 468 nm and the “Absorption Coefficient (ε)” value is given as 4.50 × 10^4. In addition, the “Relative Dielectric Constant” value in data set [4] is given as 8.2. Moreover, the “Viscosity (5%)” value in data set [3] came out at 2.1 mPa · S. In addition, the “Viscosity (10%)” value in data set [3] (10% by mass solution in n-hexane) is reported as 3.2 mPa · S.
Regarding `CCCCOC(=O)CN(CC(=O)OCCCC)c1ccc(C=C2C(=O)ON=C2C(C)(C)C)cc1` [D-11], the “Solubility (% by mass)” value in data set [1] was 5.0 % by mass. Further, in data set [2], the “Absorption Maximum Wavelength λmax” value was 459 nm and the “Absorption Coefficient (ε)” value was 3.80 × 10^4. For the same molecule, in data set [3], the “Viscosity (5%)” value is listed as 2.1 mPa · S.
For `CCCCCCCCN(CCCCCCCC)c1ccc(C=CC=C2C(=O)ON=C2C(C)(C)C)c(OC)c1` [E-3], in data set [1], the “Solubility (% by mass)” value came to 7.2 % by mass. Moreover, in data set [2], the “Absorption Maximum Wavelength λmax” value turned out to be 530 nm and the “Absorption Coefficient (ε)” value is given as 5.20 × 10^4. In addition, the “Relative Dielectric Constant” value in data set [4] is 9.0. Besides, the “Viscosity (5%)” value in data set [3] stood at 2.1 mPa · S.
As for `Cc1cc(C=C2C(=O)ON=C2C(C)(C)C)c(C)n1-c1ccc(C(=O)O)cc1` [D-101, reference compound], in data set [1], the “Solubility (% by mass)” value turned out to be 0.015 % by mass and the “Solubility (in words)” value is on record as “low solubility”.
Turning to `CCCCCCN(CCCCCC)c1ccc(C=C2C(=O)ON=C2C(C)(C)C)c(C)c1` [D-37], in data set [1], the “Solubility (% by mass)” value is recorded as 1.2 % by mass. For the same molecule, in data set [2], the “Absorption Maximum Wavelength λmax” value came out at 465 nm and the “Absorption Coefficient (ε)” value is listed as 4.10 × 10^4.

These data come from US9482923B2, “Colored composition and image display structure” (FUJIFILM CORPORATION, priority 2011, dated 2016).
